Like-named read-outs stand apart in the source and are kept apart here.
Assays:
cyclo-oxygenase = details: conventional prostaglandin synthesis inhibitors; cited from earlier work
[1] = test system: platelet aggregation in normal human plasma; assay: Platelet aggregation in normal human plasma induced by ADP; assay type: cell-based; details: for T/min, Aggregation (first value) / Tmax, Aggregation (first value): control 75.1; for activity at 1000 µM / inhibition at 1000 µM / activity at 100 µM / inhibition at 100 µM: Homo sapiens, Platelet; for activity at 1000 µM / activity at 100 µM: control 100
Method: (§1) The platelet aggregation was determined by a tubimetric method in a dual-channel aggregometer, assuming that a platelet-poor plasma represented 100% aggregation and that a platelet-rich plasma represented 0% aggregation. Each aggregometer tube was charged with 40 μl of platelet-rich plasma and 50 μl of test sample solution. The mixture was incubated at 37° C. for 2 min., whereupon 50 μl of ADP solution were added. Percent inhibition of the platelet aggregation caused by the test sample solution was calculated as follows: [formula]

prostacyclin synthetase = details: conventional prostaglandin synthesis inhibitors; cited from earlier work
[2] = test system: platelet aggregation in diabetic human plasma; assay: Platelet aggregation in diabetic human plasma induced by ADP; assay type: cell-based; details: for activity at 1000 µM / inhibition at 1000 µM / activity at 100 µM / inhibition at 100 µM: Homo sapiens, Platelet; for activity at 1000 µM / activity at 100 µM: control 100
Method: as §1

[3] = Increase of the peripheral insulin action in diabetic mice; assay type: in vivo; details: 0.46 mU/g, control group (FIG. 5)
Method: Diabetic mice were divided into a control group and a test group. A dose of 100 mg of brazilin per kg body weight was daily administered to the animals of the test group; instead of brazilin, the same amount of saline solution was injected intraperitoneally to the animals of the control group.
After 30 test days, the body weight of the animals of the test group was higher and the blood sugar values of these animals were lower as compared to the diabetic animals of the control group.
On the 30th test day, the animals were made to fast for 5 h; thereupon, they were injected intravenously with 0.46 mU/g of NPH insulin. Then, the blood sugar values were measured at respective intervals of 5 min.

[4] = Comparison of synthetic substances with full extract; details: synthetically prepared substance
[5] = Rev. Latinoam. Microbiol. 1, 225-232 (1958); cited from earlier work
[6] = test system: lipid peroxidation in the mitochondria of rat liver; details: Arch. Pharm. Res. 7, 63-64, 1984; cited from earlier work
plasmalipid = details: spontaneously hypertensive rats; Fette-Seifen-Anstrichmittel 87, 74-76 (1985); cited from earlier work
[7] = Planta Med. 31, 214-220 (1977); cited from earlier work
[8] = 10^-3 M, read-out: T/min, Aggregation relative to control (second value)
[9] = 10^-3 M, read-out: Tmax, Aggregation relative to control (second value)
[10] = 10^-3 M, read-out: T/min, Inhibition
[11] = 10^-3 M, read-out: Tmax, Inhibition
[12] = 10^-4 M, read-out: T/min, Aggregation relative to control (second value)
[13] = 10^-4 M, read-out: Tmax, Aggregation relative to control (second value)
[14] = 10^-4 M, read-out: T/min, Inhibition
[15] = 10^-4 M, read-out: Tmax, Inhibition

CC(=O)Oc1ccccc1C(=O)O [acetylsalicylic acid, reference compound]
inhibition of cyclo-oxygenase (cyclo-oxygenase): inhibit the activity of cyclo-oxygenase
T/min, Aggregation (first value) ([1]; 10^-3 M): 11.9%
Tmax, Aggregation (first value) ([1]; 10^-3 M): 37.5%
T/min, Aggregation (first value) ([1]; 10^-4 M): 17.4%
Tmax, Aggregation (first value) ([1]; 10^-4 M): 60.2%
activity at 1000 µM [1, 8]: 15.8%
activity at 1000 µM [1, 9]: 49.9%
inhibition at 1000 µM [1, 10]: 84.6%
inhibition at 1000 µM [1, 11]: 50.1%
activity at 100 µM [1, 12]: 23.2%
activity at 100 µM [1, 13]: 80.1%
inhibition at 100 µM [1, 14]: 76.8%
inhibition at 100 µM [1, 15]: 19.9%
inhibition of prostacyclin synthetase (prostacyclin synthetase): prostacyclin synthetase is also undesirably inhibited
Tmax, Aggregation (first value) ([2]; 10^-3 M, control 78.7): 70.0%
Tmax, Aggregation (first value) ([2]; 10^-4 M, control 78.7): 73.8%
activity at 1000 µM [2, 9]: 88.9%
inhibition at 1000 µM [2, 11]: 11.1%
activity at 100 µM [2, 13]: 93.6%
inhibition at 100 µM [2, 15]: 6.4%

NPH insulin [reference compound]
blood sugar after i.v. NPH insulin in diabetic control mice [3]: cannot significantly change the blood sugar value

Oc1cc2c(cc1O)[C@@H]1c3ccc(O)c(O)c3OC[C@]1(O)C2 [hematoxylin]
T/min, Aggregation (first value) ([1]; 10^-3 M): 11.7%
Tmax, Aggregation (first value) ([1]; 10^-3 M): 22.6%
T/min, Aggregation (first value) ([1]; 10^-4 M): 58.8%
Tmax, Aggregation (first value) ([1]; 10^-4 M): 68.1%
activity at 1000 µM [1, 8]: 15.6%
activity at 1000 µM [1, 9]: 30.8%
inhibition at 1000 µM [1, 10]: 84.4%
inhibition at 1000 µM [1, 11]: 69.8%
activity at 100 µM [1, 12]: 78.4%
activity at 100 µM [1, 13]: 90.6%
inhibition at 100 µM [1, 14]: 21.7%
inhibition at 100 µM [1, 15]: 9.4%
effects compared with administration of major amounts of full extract [4]: substantially has the same effects
antibacterial effect [5]: antibacterial effect
effect on lipid peroxidation in mitochondria of rat liver [6]: effect on the lipid peroxidation
plasmalipid-reducing effect (plasmalipid): plasmalipid-reducing effect
anti-inflammatory effect [7]: anti-inflammatory effect
T/min, Aggregation (first value) ([2]; 10^-3 M, control 78.7): 7.5%
Tmax, Aggregation (first value) ([2]; 10^-3 M, control 78.7): 52.5%
Tmax, Aggregation (first value) ([2]; 10^-4 M, control 78.7): 76.3%
activity at 1000 µM [2, 8]: 9.5%
activity at 1000 µM [2, 9]: 66.5%
inhibition at 1000 µM [2, 10]: 90.5%
inhibition at 1000 µM [2, 11]: 33.5%
activity at 100 µM [2, 13]: 96.8%
inhibition at 100 µM [2, 15]: 3.2%
inhibition of the platelet aggregation ([2]; conclusion on Tables 12 and 13): considerable inhibition of the platelet aggregation

COc1ccc2c(c1)c(CC(=O)O)c(C)n2C(=O)c1ccc(Cl)cc1 [indomethacin]
inhibition of cyclo-oxygenase (cyclo-oxygenase): inhibit the activity of cyclo-oxygenase
inhibition of prostacyclin synthetase (prostacyclin synthetase): prostacyclin synthetase is also undesirably inhibited

Reference: US4918099A, “Drug, preparation and use thereof” (priority 1985, dated 1990)
